Reference: patent US20240009123A1, “MULTI-SUPPLEMENT DELIVERY SYSTEM” (priority 2022, published 2024)

What was measured:
[1] = Surface charge (zeta potential) at pH 5; type: physicochemical
Protocol: A facile, green, and powerful strategy was explored to engineer a robust O/W emulsion for co-delivery of water-soluble vitamins (VC, VB6, VB12) and oil-soluble vitamins (VA, VE). The preparation involved the complexation of chitosan and water-soluble vitamins and subsequent formation of chitosan-stabilized O/W emulsions. The approach is illustrated in FIG. 1A. First, the chitosan-vitamin complexes were prepared by mixing solutions of chitosan, anthocyanins, and water-soluble vitamins in deionized water at pH 5. […] The resulting chitosan-vitamin complexes were mixed with canola oil containing oil-soluble vitamins. After homogenization by ultrasonication, the chitosan-stabilized emulsions can form as optically opaque homogenous suspensions. In the ultrasonication process, the chitosan-vitamin complexes tended to coat on the surface of oil droplets, providing a physical layer for stabilization of oil-soluble vitamins. […] The value of the zeta potential (mV) indicates the degree of electrostatic repulsion and is the indicator/predictor of the stability of the dispersed particles. The absolute value difference of positive and negative electrostatic charges, measured in mV, between vitamins and chitosan is not the only factor that keeps the vitamins on the interface.

[2] = Release of vitamins during tea bag steeping process (UV spectrophotometry); type: physicochemical; settings: for release rate: 4° C., pH 5; for release rate (total amount released): initial 2-minute brewing period, water of pH 5, 4° C., tea bag, spray-dried powder of Example 1
Protocol: To evaluate the release of encapsulated vitamins from the spray-dried powder into water, 30 mg spray-dried powders was placed in the tea bag, which was then immersed in a beaker containing 30 mL of deionized water (pH 5). The beaker was placed in a shaker and shaken slowly in a water bath at 4° C. or 100° C. At appropriate brewing time intervals, an aliquot of solution (0.5 mL) was removed with a pipette for measuring the released vitamins. To determine the amount of water-soluble vitamins, the pH of solution was adjusted to pH 1, followed by filtration (filter pore size 50 μm). […] The release rate was determined by the following equation: release rate (%)=(released vitamins/initially added vitamins)×100.
At appropriate steeping time intervals, an aliquot of solution (0.5 mL) was removed with a pipette for measuring the released vitamins. To determine the amount of water-soluble vitamins, the pH of solution was adjusted to pH 1, followed by filtration (filter pore size 50 μm). The filtrate was then collected and quantified using a UV-spectrophotometer for absorbance. A blank was prepared using deionized water at pH of 1 (adjusted by HCl).
The absorbance of Vitamin B6 was measured at a wavelength of 291 nm. The absorbance of Vitamin B12 was measured at a wavelength of 361 nm.
At appropriate steeping time intervals, an aliquot of solution (0.5 mL) was removed with a pipette for measuring the released vitamins. To determine the amount of oil-soluble vitamins, the pH of the solution was adjusted to a pH of 1, followed by filtration (filter pore size 50 μm). Then, 3 mL organic solvent (chloroform+methanol, 1:1, v/v) was added into the solution to extract the oil-soluble vitamins. After centrifugation at 1000 g for 5 min, the layer of chloroform was removed and quantified using the UV-spectrophotometer for absorbance. A blank was prepared using chloroform.
Using a UV-spectrophotometer, the absorbance of Vitamin A was measured at a wavelength of 326 nm. The absorbance of Vitamin E was measured at a wavelength of 295 nm.

CCCCCCCCCCCCCCCC(=O)OC/C=C(C)/C=C/C=C(C)/C=C/C1=C(C)CCCC1(C)C [VA, retinol palmitate]
charge [1]: negatively charged | release rate ([2]; at 5 min): 84.0%

O=C1O[C@H]([C@@H](O)CO)C(O)=C1O [VC, Vitamin C]
charge [1]: negatively charged | release rate (total amount released) [2]: 96.5%

Vitamin B6 [VB6]
charge [1]: negatively charged | release rate (total amount released) [2]: 98.8%

Vitamin B12 [VB12]
charge [1]: slightly positively charged | release rate (total amount released) [2]: 100%

anthocyanin [anthocyanins]
charge [1]: negatively charged

tocopherols, mixed, FG [VE]
release rate ([2]; at 10 min): 80.4%
